In the assay the test system is HL-1 cardiomyocytes. Nature of the assay: oxygen consumption (Clark-type oxygen electrode). The class given is cell-based, Mus musculus. The note with it: HL-1 cells, 48 hr treatment, normalized to protein content; FIG. 5. Here is the method:
HL-1 cardiomyocytes (a gift from W. C. Claycomb, New Orleans, School of Medicine) were plated in fibronectin/gelatin-coated flasks, grown to 70%-80% confluence in Claycomb medium (JRH Biosciences) supplemented with 100 μM norepinephrine (from a 10 mM norepinephrine [Sigma-Aldrich] stock solution dissolved in 30 mM L-ascorbic acid [Sigma-Aldrich]), 2 mM L-glutamine, 100 U/ml penicillin, 100 μg/ml streptomycin and 10% FBS (JRH Biosciences) as disclosed in Claycomb et al., 1998.
At the end of these periods, mRNA and DNA were extracted from the cells or the cells were used to evaluate the oxygen consumption. Control cells were treated with Claycomb medium only.
An amount of 1 ml of HL-1 cardiomyocytes treated with the compositions shown in Table 1 was re-suspended in Hank's balanced salt solution (Sigma) and spun down to pellet cells. A number of HL-1 cells was also supplemented with a nitic oxide (NO) donor, specifically with diethylenetriamine-NO also called (DETA-NO; Sigma-Aldrich, Milan, Italy), as positive control. […]
Samples were analyzed at 37° C. in a gas-tight vessel equipped with a Clark-type oxygen electrode (Rank Brothers Ltd.) connected to a chart recorder. […]
Oxygen consumption was assessed with continuous mixing for about ten minutes. […] Protein content was determined by using the bicinchoninic acid protein (BCA) assay.

`NCCN(CCN)/[N+]([O-])=N/O` [DETA-NO, diethylenetriamine-NO]: the oxygen consumption result was “a rise of oxygen consumption was observed”.

Source of the values: patent publication US20220249418A1, “COMPOSITIONS COMPRISING AMINO ACIDS FOR USE IN THE TREATMENT OF MITOCHONDRIAL DYSFUNCTION-RELATED DISEASES” (PROFESSIONAL DIETETICS INTERNATIONAL S.R.L., priority 2017, published 2022).
